Laboratory results: patent publication US12466816B2, “Fused cyclic compound capable of degrading protein and use thereof” (Medshine Discovery Inc., priority 2019, dated 2025)

Assays:
Wee1 = Wee1 (Homo sapiens, UniProt P30291); assay: CRBN-dependent ubiquitin-mediated degradation of Wee1 (wild-type versus CRBN KO cells, Western blot); format: cell-based; parameters: endogenous in cells; host or cells: U87-MG
Procedure: 293T cells and 293T CRBN KO cells were treated with DMSO, 1 μM WX106, 10 μM WX106 alone or in combination with 10 μM MG132 for 16 h, the whole-cell lysates were collected, and Wee1 protein expression was detected using Western blot. […] U87-MG cells and U87-MG CRBN KO cells were treated with 10 μM WX106 or WX106 plus 10 μM MG132 for 16 h, and the level of Wee1 protein expression was detected using Western blot.

MM.1S cells = assay: Sensitivity of MM.1S versus low-CRBN-expression MM.1S-p5000 cells to WX106 (CCK-8); format: cell-based; settings: 10 μM, 72 h, MM.1S-p5000 versus MM.1S
Procedure: WX106 (10 μM) was added to MM.1S cells and MM.1S-p5000 (Poma-resistant low-CRBN-expression cell line) cells, respectively, and cell proliferation was detected by CCK-8 after 72 h.

Hep3B cells = assay: Sensitivity of wild-type versus CRBN KO cells to WX106 (CCK-8); format: cell-based; settings: 10 μM, 72 h
Procedure: The sgRNA sequence targeting CRBN was inserted into lenti Crispr V2 plasmid, the virus was co-packaged with the packaging vectors psPAX2 and pVSVG, and the cells were infected; screening was performed with puromycin (Invitrogen, A1113803) and the knockout of CRBN was identified by Western blot; finally, the cell growth was detected to calculate the survival rate.
WX106 (10 μM) was added to wild-type Hep3B cells and Hep3B CRBN KO (knockout) hybrid clone cells, respectively, and cell proliferation was detected by CCK-8 after 72 h.

Wee1-CRBN complex = target: T1, Wee1-CRBN complex (Homo sapiens, UniProt P30291+Q96SW2); assay: Co-immunoprecipitation; format: cell-based; settings: 293T cells
T1 construct: expressed in transfected cells; host or cells: 293T
T1 sequence (Q96SW2 whole entry): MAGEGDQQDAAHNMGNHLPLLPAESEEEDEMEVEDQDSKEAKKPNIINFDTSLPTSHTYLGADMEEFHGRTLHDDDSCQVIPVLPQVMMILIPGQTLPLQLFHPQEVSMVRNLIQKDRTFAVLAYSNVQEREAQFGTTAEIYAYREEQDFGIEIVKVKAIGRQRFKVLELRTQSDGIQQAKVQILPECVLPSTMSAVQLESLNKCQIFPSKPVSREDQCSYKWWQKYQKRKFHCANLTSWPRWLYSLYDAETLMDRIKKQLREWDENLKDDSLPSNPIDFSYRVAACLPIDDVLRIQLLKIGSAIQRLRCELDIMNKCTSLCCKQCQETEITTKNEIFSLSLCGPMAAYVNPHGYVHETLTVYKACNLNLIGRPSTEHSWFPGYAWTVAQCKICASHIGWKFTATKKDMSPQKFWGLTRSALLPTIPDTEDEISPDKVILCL
T1 sequence (P30291 whole entry): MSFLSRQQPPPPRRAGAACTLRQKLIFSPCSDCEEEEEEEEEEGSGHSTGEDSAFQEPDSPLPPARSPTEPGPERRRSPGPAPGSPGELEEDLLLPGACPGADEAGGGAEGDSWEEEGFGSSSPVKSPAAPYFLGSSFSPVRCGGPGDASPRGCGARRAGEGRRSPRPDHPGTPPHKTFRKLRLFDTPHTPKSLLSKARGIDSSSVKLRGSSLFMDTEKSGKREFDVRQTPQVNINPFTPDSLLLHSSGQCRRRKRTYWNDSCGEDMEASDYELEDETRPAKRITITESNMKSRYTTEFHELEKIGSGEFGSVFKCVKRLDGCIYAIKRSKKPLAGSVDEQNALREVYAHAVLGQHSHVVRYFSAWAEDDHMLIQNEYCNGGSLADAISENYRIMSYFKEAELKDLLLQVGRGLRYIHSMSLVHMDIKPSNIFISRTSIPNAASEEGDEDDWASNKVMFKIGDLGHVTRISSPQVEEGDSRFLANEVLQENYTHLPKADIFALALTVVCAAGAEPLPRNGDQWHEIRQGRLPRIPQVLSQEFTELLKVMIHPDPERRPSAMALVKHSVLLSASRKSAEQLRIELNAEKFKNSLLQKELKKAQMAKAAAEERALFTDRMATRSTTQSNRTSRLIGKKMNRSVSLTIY
T1 sequence (Q16531 whole entry partner): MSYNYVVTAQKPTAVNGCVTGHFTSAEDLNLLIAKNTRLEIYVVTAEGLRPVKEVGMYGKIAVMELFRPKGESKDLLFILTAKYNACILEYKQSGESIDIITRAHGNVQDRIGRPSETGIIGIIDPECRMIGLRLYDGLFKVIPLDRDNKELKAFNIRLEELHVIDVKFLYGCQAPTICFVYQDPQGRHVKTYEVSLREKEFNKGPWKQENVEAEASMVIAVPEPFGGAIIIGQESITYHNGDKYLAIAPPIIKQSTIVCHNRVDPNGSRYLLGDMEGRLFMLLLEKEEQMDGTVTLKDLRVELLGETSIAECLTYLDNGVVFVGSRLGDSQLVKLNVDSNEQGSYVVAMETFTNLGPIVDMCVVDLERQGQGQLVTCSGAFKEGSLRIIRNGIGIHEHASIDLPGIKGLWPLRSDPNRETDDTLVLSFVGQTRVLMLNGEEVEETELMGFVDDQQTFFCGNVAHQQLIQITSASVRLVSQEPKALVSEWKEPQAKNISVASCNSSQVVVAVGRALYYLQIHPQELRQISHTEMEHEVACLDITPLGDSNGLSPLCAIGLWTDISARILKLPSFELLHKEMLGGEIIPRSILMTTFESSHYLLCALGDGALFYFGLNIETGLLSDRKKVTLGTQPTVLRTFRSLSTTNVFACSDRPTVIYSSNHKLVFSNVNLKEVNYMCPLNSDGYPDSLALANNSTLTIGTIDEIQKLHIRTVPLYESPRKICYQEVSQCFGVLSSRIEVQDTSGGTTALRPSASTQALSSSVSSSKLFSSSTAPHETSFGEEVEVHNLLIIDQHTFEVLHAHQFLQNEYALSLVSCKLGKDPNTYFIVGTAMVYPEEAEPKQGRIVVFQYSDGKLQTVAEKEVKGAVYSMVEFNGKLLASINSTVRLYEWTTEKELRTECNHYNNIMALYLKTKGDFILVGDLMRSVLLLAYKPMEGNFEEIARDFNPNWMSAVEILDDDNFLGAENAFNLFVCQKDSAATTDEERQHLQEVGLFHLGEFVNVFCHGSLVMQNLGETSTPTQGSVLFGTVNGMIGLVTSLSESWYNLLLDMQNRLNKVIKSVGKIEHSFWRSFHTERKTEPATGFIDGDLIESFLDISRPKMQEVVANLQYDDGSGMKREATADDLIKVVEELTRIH
Procedure: The plasmid was transfected into 293T cells. After 24 hours, the compound WX106 was added to treat the cells for a certain period of time. The cells were lysed with NETN lysis buffer (150 mM NaCl, 50 mM Tris-HCl of pH 8.0, 1% NP40), followed by incubation with agarose beads (EZview™ Red anti-HA affinity gel, Sigma, E6779; anti-FLAG® M2 affinity gel, Sigma, A2220) and lysis buffer for 2 hours. The beads were washed 4 times with lysis buffer, loading buffer (100 mM Tris-HCl, 4% SDS, 0.05% BPB, 2% β-mercaptoethanol, 20% glycerol) was added and detection was performed using Western blot.
According to FIG. 24, HA CRBN (CRBN was overexpressed in cells by transfection technology; HA is a polypeptide and CRBN fusion expression; CRBN refers to endogenous CRBN in cells) and FLAG Wee1 (Wee1 was overexpressed in cells by transfection technology; FLAG is a polypeptide and CRBN fusion expression; Wee1 refers to endogenous Wee1 in cells) were overexpressed in 293T cells [and left to stand] for 24 hours after transfection; thereafter, the cells were treated with 20 μM MG132 or 10 μM WX106 1 h and 2 h before they were harvested for Co-IP (co-immunoprecipitation) assay, respectively. […] According to FIG. 26, overexpressed CRBN and endogenous Wee1 were used for co-immunoprecipitation. […] According to FIG. 27, different Wee1 fragments were cloned separately and subjected to Co-IP with CRBN.

CRBN = CRBN (Homo sapiens, UniProt Q96SW2); assay: Thermal displacement experiment (CRBN thermal stability, Western blot); format: binding; parameters: endogenous in cells; settings: 100 μM, 293T cell lysates, 56° C. and 59° C.
CRBN, sequence (Q96SW2 whole entry): as the sequence (Q96SW2 whole entry) above
Procedure: The experiment utilizes the principle that the binding of small molecular compounds to proteins can improve the thermal stability of proteins. 3×10^7 cells were collected and washed twice with phosphate buffered saline (PBS). 100×protease inhibitor cocktail (APEXBIO, K1007) was added to pre-cooled PBS to suspend the cells, and 500 μL of cell suspension was aliquoted into each 1.5 EP tube. The EP tube was placed in liquid nitrogen for quick freezing for 5 min and then transferred to a 26° C. water bath quickly; thereafter, the EP tube was transferred to a 4° C. environment when the liquid is half thawed, until it is completely thawed. This freeze-thaw procedure was performed thrice to allow complete protein precipitation from the cells. The frozen-thawed product was centrifuged at 4° C. for 20 min, the supernatant was aspirated and mixed, and then aliquoted into 1.5 mL EP tubes, and DMSO and WX106 were added respectively to adjust the concentration of WX106 in the solution to 100 μM. […] After the heat shock at all temperatures, the DMSO- and WX106-treated samples at each temperature were collected respectively, centrifuged at 4° C. for 20 min, and the concentration of BCA protein (Thermo) was quantified; at the same time, Western blot was performed to detect the changes of CRBN (Anti-CRBN antibody, Sigma Company, HPA045910) protein content. […]

Wee1, sequence (P30291 whole entry): as the sequence (P30291 whole entry) above

- level of Wee1 expression in CRBN-deficient cells (Wee1; 293T CRBN KO cells, 1 μM or 10 μM, 16 h): no significant change
- Wee1 degradation in wild-type cells (Wee1; 293T cells, 1 μM or 10 μM, 16 h): promoted Wee1 degradation
- pro-degradation effect on Wee1 when MG132 was added (Wee1; wild-type 293T cells, with 10 μM MG132, 16 h): absent
- complex formed by Wee1 and CRBN (HA CRBN and FLAG Wee1 overexpressed) (Wee1-CRBN complex; 10 μM WX106, 20 μM MG132, FIG. 24): significantly increased
- complex formed by Wee1 and CRBN (overexpressed CRBN and endogenous Wee1) (Wee1-CRBN complex; FIG. 26): significantly increased
- CRBN protein abundance after heat shock (CRBN): significantly increased
SMILES: Cc1ccc(C(=O)Nc2ccc3occ(C4CCC(=O)NC4=O)c3c2)cc1Cl (centres unmarked) [WX106]
- sensitivity of cells to WX106 with low CRBN expression (MM.1S cells): significantly less sensitive
- sensitivity of cells to WX106 after CRBN knockout (Hep3B cells): significantly reduced
